Data from patent EP4559919A1, “TRICYCLIC-CONTAINING MACROCYCLIC COMPOUND AND USE THEREOF” (Medshine Discovery Inc., priority 2022, dated 2024).

Key:
ALK(G1202R/L1196M) [1] = target: T1, ALK(G1202R/L1196M) (Homo sapiens, UniProt Q9UM73, G1202R/L1196M); experiment: In vitro kinase inhibitory activity assay, Experimental method 1 (ADP-Glo); type: biochemical; conditions: final ATP 50 µM, read-out: Kinase half maximal inhibitory concentration IC50 ALK^G1202R/L1196M
T1 construct: purchased Carna
Procedure: (§1) The kinase inhibitory activity assays of the compounds against ALK, ALK^L1196M, ALK^G1202R, ALK^G1202R/L1196M, ROS1, and TRKB were conducted at Wuhan Heyan Biotechnology Co., Ltd. or Hefei PreceDo Biotechnology Co., Ltd.
(§2) Experimental materials: ALK Active, ALK(L1196M) Active, ALK(G1202R) Active, and ALK(G1202R/L1196M) Active were purchased from Carna; SRC Substrate was purchased from SignalChem; IGF1R tide was purchased from SignalChem; ADP-Glo Kinase Assay was purchased from Promega; Kinase assay buffer III was purchased from SignalChem; and Nivo multimode plate reader (PerkinElmer).
(§3) Each concentration of the compounds was further diluted 20-fold using 1X kinase buffer to prepare compound working solutions containing 5% DMSO. 1 µL of each concentration gradient working solution was added to a microplate, with duplicate wells set for each concentration. 2 µL of ALK enzyme (15 ng per well) and 2 µL of a mixture of substrate and ATP (25 µM ATP, 0.5 µg/µL SRC Substrate) were added to the microplate. […] The reaction system was placed at 25°C for 1 hour. After the reaction, 5 µL of ADP-Glo reagent was added to each well and reacted at 25°C for another 40 minutes. After the reaction, 10 µL of kinase detection reagent was added to each well and reacted at 25°C for 30 minutes. Chemiluminescence was then measured using the PerkinElmer Nivo multimode plate reader with an integration time of 0.5 seconds.
ALK (G1202R/L1196M) kinase inhibition assay method: The preparation method for the working solution of the test compound was the same as for the ALK kinase. […] The subsequent steps were the same as for ALK kinase.
(§4) The IC50 value could then be derived by performing a curve fit using a four-parameter logistic model (obtained using the "log(inhibitor) vs. response -- Variable slope" mode in GraphPad Prism).

TRKB [2] = target: T2, TRKB (Homo sapiens, UniProt Q16620); experiment: as above; type: biochemical; conditions: read-out: Kinase half maximal inhibitory concentration IC50 TRKB
T2 construct: purchased Carna
Procedure: as §1, §2, §3
TRKB kinase inhibition assay method: The preparation method for the working solution of the test compound was the same as for the ALK kinase. 2 µL of TRKB (0.5 ng per well) and 4 µL of a mixture of substrate and ATP (5 µM ATP, 0.5 µM SRC Substrate) were added to the microplate. […] The subsequent steps were the same as for ALK kinase.
as §4

ALK = target: T3, ALK (Homo sapiens, UniProt Q9UM73); experiment: as above; type: biochemical; conditions: final ATP 10 µM, read-out: Kinase half maximal inhibitory concentration IC50 ALK
T3 construct: purchased Carna
Procedure: as §1, §2
as §3, with “After the reaction, 10 µL of kinase detection reagent was added to each well and reacted at 25°C for 30 minutes.” left out, “seconds. […]” for “seconds.”

ALK(L1196M) = target: T4, ALK(L1196M) (Homo sapiens, UniProt Q9UM73, L1196M); experiment: as above; type: biochemical; conditions: final ATP 50 µM, read-out: Kinase half maximal inhibitory concentration IC50 ALK^L1196M
T4 construct: purchased Carna
Procedure: as §1, §2
as §3, with “After the reaction, 10 µL of kinase detection reagent was added to each well and reacted at 25°C for 30 minutes.” left out, “seconds. […]” for “seconds.”

ALK(G1202R) = target: T5, ALK(G1202R) (Homo sapiens, UniProt Q9UM73, G1202R); experiment: as above; type: biochemical; conditions: final ATP 50 µM, read-out: Kinase half maximal inhibitory concentration IC50 ALK^G1202R
T5 construct: purchased Carna
Procedure: as §1, §2, §3
ALK (G1202R) kinase inhibition assay method: The preparation method for the working solution of the test compound was the same as for the ALK kinase. […] The subsequent steps were the same as for ALK kinase.
as §4

ROS1 = ROS1 (Homo sapiens, UniProt P08922); experiment: as above; type: biochemical; conditions: read-out: Kinase half maximal inhibitory concentration IC50 ROS1
Procedure: as §1, §2
as §3, with “After the reaction, 10 µL of kinase detection reagent was added to each well and reacted at 25°C for 30 minutes.” left out, “seconds. […]” for “seconds.”

ALK(G1202R/L1196M) [3] = target: T1, ALK(G1202R/L1196M); experiment: In vitro kinase inhibitory activity assay, Experimental method 2 (ADP-Glo); type: biochemical; conditions: Experimental method 2; ATP 5.0 µM, substrate IGF1; read-out: Kinase half maximal inhibitory concentration IC50 ALK^G1202R/L1196M
Procedure: as §1
(§5) Experimental materials: ALK (G1202R/L1196M) Active and TRKB were purchased from Carna; IGF1 was purchased from GenScript; PolyE4Y1 was purchased from SIGMA; ADP-Glo™ Reagent was purchased from Promega; ATP was purchased from Promega; Kinase Detection Reagent was purchased from Promega; microplate reader ( PerkinElmer).
Reaction system: ALK(G1202R/L1196M) reaction concentration 8.63 nM, ATP concentration 5.0 µM, substrate IGF1 concentration 0.2 µg/µL. ALK(G1202R/L1196M) kinase buffer was 40 mM Tris-HCl (pH 7.5) + 20 mM magnesium chloride + 0.1 mg/mL BSA + 50 µM DTT.
(§6) ALK(G1202R/L1196M) and TRKB detection method: 2 µL of kinase and 1 µL of compound were added to a 384-well plate; 2 µL of substrate/ATP mixture was added and incubated at room temperature in the dark for 60 minutes; 5 µL of ADP-Glo™ reagent was added and incubated at room temperature for 40 minutes; 10 µL of kinase detection reagent was added and incubated at room temperature for 30 minutes; the plate was read on a microplate reader, and luminescence was recorded (integration time set to 0.5 seconds).
as §4

TRKB [4] = target: T2, TRKB; experiment: as above; type: biochemical; conditions: Experimental method 2; ATP 5.0 µM, substrate PolyE4Y1; read-out: Kinase half maximal inhibitory concentration IC50 TRKB
Procedure: as §1, §5
TRKB reaction concentration 4.47 nM, ATP concentration 5.0 µM, substrate PolyE4Y1 concentration 0.2 µg/µL. TRKB kinase buffer was 40 mM Tris-HCl (pH 7.5) + 20 mM magnesium chloride + 2.5 mM manganese chloride + 0.1mg/mL BSA+ 50 µM DTT.
as §6, §4

[5] = system: Ba/F3-EML4-ALK-G1202R/L1196M; experiment: Anti-proliferative activity test on Ba/F3 cell lines (CellTiter-Glo); type: cell-based
Procedure: (§7) • (1) Cell culture: The cell lines were cultured in an incubator at 37°C with 5% CO2. Regular passaging was performed, and cells in the logarithmic growth phase were selected for plating; • (2) Preparation of compound storage plate: The test compounds were prepared into a 10 mM solution with DMSO (Stock Con.); The compounds were then prepared into a 1 mM solution with DMSO (Work Con.); 1 µL of the stock solution was mixed with 9 µL of DMSO to prepare a 10 µL work solution. • (3) Preparation of 1000× compound storage plate (tube): The compounds were 3-fold serially diluted from […] to the lowest concentration, for a total of 8 concentrations; • (4) Preparation of 20× compound working solution: 98 µL of cell culture medium was added to a flat-bottomed 96-well transparent drug plate. From the 1000× compound storage plate, 2 µL of the compound was pipetted into the cell culture medium in the 96-well transparent drug plate. In the solvent control, 2 µL of DMSO was added. After the compound or DMSO was added, the mixture was homogenized using a pipette. • (5) Cells were stained with trypan blue and viable cells were counted to ensure a cell viability of 90% or more. The cell concentration was adjusted to an appropriate concentration; • (6) 95 µL of cell suspension (2000 cells/well) was added to each well of the compound assay cell plate, and cell-free culture medium containing 0.1% DMSO was added to the Min control wells; • (7) Administration in the compound assay cell plate: 5 µL of 20× compound working solution was added to the cell culture plate, 5 µL of DMSO-cell culture medium mixture was added to the Max control wells, and the final concentration of DMSO was 0.1%; • (8) The culture plate was then incubated in an incubator at 37°C with 5% CO2 for 72 hours; • (9) The following operations were conducted in accordance with the instructions of the Promega CellTiter-Glo Luminescent Cell Viability Assay Kit (Promega-G7573): CellTiter-Glo buffer was thawed and brought to room temperature; CellTiter-Glo substrate was brought to room temperature; CellTiter-Glo buffer was added to a bottle of CellTiter-Glo substrate to dissolve the substrate, thereby preparing CellTiter-Glo working solution; The mixture was slowly vortexed and shaken to be fully dissolved; The cell culture plate was removed and allowed to equilibrate to room temperature for 10 minutes; 50 µL (equal to half the volume of cell culture medium in each well) of CellTiter-Glo working solution was added to each well; The culture plate was shaken on an orbital shaker for 2 minutes to induce cell lysis; The plate was then left at room temperature for 10 minutes to stabilize the luminescent signal; The luminescent signal was detected using a SpectraMax Paradigm plate reader; Cell viability assay was conducted using CellTiter-Glo luminescence method.
(§8) Data analysis: The corresponding […] value (RLU) for each well was obtained from SpectraMax Paradigm readings. […] The inhibition rates corresponding to compounds at different concentrations were calculated in Excel, and the inhibition rate curves were plotted using GraphPad Prism software to calculate relevant parameters, including the maximum and minimum inhibition rates of the cells and the IC50 value.

Ba/F3-TEL-TRKB = experiment: as above; type: cell-based; conditions: Mus musculus, BaF3; 72 hours; read-out: Half maximal inhibitory concentration IC50 for cells Ba/F3-TEL-TRKB
Procedure: as §7, §8

[6] = HMS CLint (liver) test, hepatocyte metabolic stability; type: in vitro ADME; conditions: 0.5 × 10^6 cells/mL, up to 90 minutes
Procedure: The metabolic stability of the compounds of the present disclosure was tested in human and mouse hepatocytes.
• (1) Test compound (10 mM); Control: 7-ethoxycoumarin (30 mM), 7-hydroxycoumarin (reference substance, 30 mM); • Mouse hepatocytes with cell viability of 73.8%, supplier Cat No.: BioreclamationIVTM005052; • Human hepatocytes with cell viability of 94.6%, supplier Cat No.: Bioreclamation IVTX008001. • (2) Buffer system: Thawing medium: Williams' medium E containing 5% fetal bovine serum, 30% Percoll solution, and other auxiliary materials.
Incubation medium: Williams' medium E (without phenol red) containing 2 mM L-glutamine and 25 mM 4-(2-hydroxyethyl)-1-piperazineethanesulfonic acid.
Stop solution: acetonitrile containing 200 ng/mL tolbutamide and labetalol as internal standard. […]
The residual rates of the test compound and the control compound were determined using the following formula: Residual rate (%) = (Peak area ratio of compound to internal standard at any time point)/(Peak area ratio of compound to internal standard at 0 minutes) × 100% [formula]
The elimination rate constant (k) of the test compound and the control compound in hepatocytes was calculated by plotting the logarithm of the residual rate against time. […]

T2 sequence (Q16620 32-822): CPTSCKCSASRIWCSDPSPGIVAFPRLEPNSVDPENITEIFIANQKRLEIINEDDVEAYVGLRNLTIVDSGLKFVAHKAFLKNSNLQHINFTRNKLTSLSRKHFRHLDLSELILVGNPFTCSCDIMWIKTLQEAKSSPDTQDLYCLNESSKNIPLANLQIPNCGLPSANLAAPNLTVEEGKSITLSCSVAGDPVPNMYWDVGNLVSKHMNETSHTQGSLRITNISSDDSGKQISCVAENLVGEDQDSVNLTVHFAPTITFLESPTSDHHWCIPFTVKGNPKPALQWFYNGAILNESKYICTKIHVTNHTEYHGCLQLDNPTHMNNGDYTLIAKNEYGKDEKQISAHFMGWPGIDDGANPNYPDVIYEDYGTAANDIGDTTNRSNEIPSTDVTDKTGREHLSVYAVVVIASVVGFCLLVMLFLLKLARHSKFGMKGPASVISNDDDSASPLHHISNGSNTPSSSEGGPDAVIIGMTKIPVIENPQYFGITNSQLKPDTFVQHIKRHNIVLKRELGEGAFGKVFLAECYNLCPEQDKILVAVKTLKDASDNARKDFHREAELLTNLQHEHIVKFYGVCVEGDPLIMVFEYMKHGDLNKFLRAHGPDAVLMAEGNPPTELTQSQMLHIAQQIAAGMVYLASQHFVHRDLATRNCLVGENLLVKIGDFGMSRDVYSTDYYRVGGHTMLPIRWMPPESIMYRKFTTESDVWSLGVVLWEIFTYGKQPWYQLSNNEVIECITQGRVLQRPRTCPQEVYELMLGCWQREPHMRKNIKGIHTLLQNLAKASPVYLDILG
T1 sequence (Q9UM73 19-1620 L1196M/G1202R): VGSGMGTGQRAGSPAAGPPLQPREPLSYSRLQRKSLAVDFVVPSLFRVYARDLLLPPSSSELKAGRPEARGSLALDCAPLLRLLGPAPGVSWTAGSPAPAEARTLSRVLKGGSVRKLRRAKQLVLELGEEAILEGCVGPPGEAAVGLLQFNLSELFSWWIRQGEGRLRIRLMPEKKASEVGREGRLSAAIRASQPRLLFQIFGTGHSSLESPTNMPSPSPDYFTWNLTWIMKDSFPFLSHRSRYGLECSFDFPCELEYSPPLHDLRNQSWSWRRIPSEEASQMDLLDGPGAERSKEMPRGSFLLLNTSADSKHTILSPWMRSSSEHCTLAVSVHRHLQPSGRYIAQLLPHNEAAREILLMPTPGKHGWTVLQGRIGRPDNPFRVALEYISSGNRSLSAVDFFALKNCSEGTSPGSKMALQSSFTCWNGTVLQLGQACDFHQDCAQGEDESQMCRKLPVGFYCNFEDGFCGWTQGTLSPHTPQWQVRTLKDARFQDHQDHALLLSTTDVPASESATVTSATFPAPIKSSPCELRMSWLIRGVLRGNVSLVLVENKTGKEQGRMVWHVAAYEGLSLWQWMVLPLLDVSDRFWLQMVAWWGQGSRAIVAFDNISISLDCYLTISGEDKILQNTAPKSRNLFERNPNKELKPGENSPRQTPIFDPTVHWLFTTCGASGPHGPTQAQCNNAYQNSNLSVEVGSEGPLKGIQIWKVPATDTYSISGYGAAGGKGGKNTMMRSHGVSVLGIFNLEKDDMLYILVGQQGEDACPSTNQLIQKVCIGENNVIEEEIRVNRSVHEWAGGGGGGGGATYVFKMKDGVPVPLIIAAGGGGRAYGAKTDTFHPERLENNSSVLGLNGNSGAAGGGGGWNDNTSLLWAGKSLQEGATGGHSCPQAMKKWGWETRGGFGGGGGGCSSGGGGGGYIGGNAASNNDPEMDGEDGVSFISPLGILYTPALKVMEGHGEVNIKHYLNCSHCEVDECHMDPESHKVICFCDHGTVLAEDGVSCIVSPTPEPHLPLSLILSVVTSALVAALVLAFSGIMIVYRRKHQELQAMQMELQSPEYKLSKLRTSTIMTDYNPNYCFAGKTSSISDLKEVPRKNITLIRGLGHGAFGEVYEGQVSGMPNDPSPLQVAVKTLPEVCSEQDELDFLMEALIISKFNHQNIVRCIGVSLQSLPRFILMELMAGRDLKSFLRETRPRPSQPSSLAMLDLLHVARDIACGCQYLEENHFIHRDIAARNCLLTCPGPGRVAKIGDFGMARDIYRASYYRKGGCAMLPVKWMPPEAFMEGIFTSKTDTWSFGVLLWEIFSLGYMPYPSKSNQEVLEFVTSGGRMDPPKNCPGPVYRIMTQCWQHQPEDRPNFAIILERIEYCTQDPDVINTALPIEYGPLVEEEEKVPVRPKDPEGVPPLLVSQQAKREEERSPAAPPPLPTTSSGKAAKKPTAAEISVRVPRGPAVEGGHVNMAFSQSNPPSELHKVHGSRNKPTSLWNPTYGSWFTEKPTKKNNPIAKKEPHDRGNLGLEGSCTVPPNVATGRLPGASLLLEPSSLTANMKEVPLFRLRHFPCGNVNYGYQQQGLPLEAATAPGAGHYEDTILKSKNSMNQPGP
Sequence of ROS1 (P08922 28-2347): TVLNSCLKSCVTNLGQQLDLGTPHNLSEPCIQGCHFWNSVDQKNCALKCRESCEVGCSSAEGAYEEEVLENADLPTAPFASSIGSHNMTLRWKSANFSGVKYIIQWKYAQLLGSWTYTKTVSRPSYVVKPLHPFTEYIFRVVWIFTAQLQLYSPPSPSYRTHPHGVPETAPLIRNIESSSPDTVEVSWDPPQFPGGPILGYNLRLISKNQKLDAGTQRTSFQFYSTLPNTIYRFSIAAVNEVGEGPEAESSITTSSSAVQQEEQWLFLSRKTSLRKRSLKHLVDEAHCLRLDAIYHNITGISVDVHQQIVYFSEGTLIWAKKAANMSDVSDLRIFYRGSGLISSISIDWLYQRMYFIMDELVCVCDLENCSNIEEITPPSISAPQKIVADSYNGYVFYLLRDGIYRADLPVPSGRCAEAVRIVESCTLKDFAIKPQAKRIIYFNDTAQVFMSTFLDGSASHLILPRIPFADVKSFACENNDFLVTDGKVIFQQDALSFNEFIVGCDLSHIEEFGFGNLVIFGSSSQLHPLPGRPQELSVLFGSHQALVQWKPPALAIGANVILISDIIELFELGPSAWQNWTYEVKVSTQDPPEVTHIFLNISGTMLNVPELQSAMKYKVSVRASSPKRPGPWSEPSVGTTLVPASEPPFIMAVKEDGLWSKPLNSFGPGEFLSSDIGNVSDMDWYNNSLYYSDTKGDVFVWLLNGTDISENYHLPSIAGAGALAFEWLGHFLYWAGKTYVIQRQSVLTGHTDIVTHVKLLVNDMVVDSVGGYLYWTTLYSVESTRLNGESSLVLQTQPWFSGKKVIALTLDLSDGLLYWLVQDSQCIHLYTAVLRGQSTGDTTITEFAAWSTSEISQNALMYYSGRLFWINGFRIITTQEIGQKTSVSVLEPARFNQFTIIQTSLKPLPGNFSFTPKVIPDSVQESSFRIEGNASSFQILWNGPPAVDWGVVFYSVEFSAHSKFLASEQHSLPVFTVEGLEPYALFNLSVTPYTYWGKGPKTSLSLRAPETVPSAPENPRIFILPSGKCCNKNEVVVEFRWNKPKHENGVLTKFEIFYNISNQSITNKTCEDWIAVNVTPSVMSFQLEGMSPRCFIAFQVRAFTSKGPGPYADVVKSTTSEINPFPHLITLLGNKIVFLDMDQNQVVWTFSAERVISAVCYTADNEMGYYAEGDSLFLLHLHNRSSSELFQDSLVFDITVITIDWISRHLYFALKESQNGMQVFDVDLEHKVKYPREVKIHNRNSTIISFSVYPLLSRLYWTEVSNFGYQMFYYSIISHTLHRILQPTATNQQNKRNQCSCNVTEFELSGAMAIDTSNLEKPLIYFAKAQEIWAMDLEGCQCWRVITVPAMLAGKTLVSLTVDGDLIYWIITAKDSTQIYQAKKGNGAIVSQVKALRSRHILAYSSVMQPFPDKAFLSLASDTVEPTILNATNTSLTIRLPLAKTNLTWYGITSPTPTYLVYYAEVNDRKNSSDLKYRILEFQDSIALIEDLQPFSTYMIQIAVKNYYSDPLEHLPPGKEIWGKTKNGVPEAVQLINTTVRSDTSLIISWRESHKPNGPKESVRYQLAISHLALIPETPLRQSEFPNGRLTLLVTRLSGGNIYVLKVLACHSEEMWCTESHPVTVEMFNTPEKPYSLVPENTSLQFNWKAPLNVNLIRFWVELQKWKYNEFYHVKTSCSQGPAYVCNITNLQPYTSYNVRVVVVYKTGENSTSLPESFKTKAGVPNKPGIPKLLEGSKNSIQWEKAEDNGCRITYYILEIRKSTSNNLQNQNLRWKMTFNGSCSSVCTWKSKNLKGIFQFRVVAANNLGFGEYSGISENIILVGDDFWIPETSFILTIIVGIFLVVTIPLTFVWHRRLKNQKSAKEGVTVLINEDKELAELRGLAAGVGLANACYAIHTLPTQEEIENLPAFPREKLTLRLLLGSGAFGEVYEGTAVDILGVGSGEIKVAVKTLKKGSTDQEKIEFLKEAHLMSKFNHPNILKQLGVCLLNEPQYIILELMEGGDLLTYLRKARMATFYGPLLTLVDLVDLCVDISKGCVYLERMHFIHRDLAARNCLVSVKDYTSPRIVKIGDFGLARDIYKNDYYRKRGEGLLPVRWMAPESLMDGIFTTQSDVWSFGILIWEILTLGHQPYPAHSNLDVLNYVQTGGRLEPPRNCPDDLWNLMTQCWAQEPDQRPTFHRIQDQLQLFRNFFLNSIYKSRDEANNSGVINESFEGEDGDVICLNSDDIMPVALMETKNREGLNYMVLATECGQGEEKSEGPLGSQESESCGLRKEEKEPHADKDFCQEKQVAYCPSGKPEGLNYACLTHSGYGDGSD
T4 sequence (Q9UM73 19-1620 L1196M): as the sequence (Q9UM73 19-1620 L1196M/G1202R) above, with R1184G counted along it
T5 sequence (Q9UM73 19-1620 G1202R): as the sequence (Q9UM73 19-1620 L1196M/G1202R) above, with M1178L counted along it
T3 sequence (Q9UM73 19-1620): as the sequence (Q9UM73 19-1620 L1196M/G1202R) above, with M1178L, R1184G counted along it

Structure (SMILES) | IC50 (ALK(G1202R/L1196M) [1]) | IC50 (TRKB [2]) | IC50 (ALK) | IC50 (ALK(L1196M)) | IC50 (ALK(G1202R)) | IC50 (ROS1) | IC50 (ALK(G1202R/L1196M) [3]) | IC50 (TRKB [4]) | IC50 ([5]; Ba/F3 EML4-ALK-G1202R-L1196M, 72 hours, read-out: Half maximal inhibitory concentration IC50 for cells Ba/F3-EML4-ALK-G1202R/L1196 M) | selectivity: inhibition against ALK-mutant cells versus TRKB phenotypic cells ([5]; stronger inhibition of ALK-mutant cells, relatively weaker of TRKB phenotypic cells) | IC50 (Ba/F3-TEL-TRKB) | CLint scaled ([6]; Human hepatocytes) | CLint scaled ([6]; Mouse hepatocytes)
CON=C1NC(C)(C)COc2ccc(F)cc2CN2c3nc4c1cnn4cc3OC[C@H]2C(F)F [Compound 001] | 12.4 nM | 2.2 nM | 22.2 nM | 12.8 nM | 16.9 nM | 17.3 nM | – | – | – | – | – | – | –
CC#Cc1nn2cc3c4nc2c1C(=O)NC(C)(C)COc1ccc(F)cc1CN4[C@H](C(F)F)CO3 [Compound 018] | – | – | – | – | – | – | 0.7 nM | 4.9 nM | 1.1 nM | excellent selectivity | 6.9 nM | < 17.8 mL/min/kg | 291 mL/min/kg
